Data reported in patent publication US12268739B2, “Use of toll-like receptor 2 (TLR-2) agonist for modulating human immune response” (Children's Medical Center Corporation, priority 2018, dated 2025).

Assays:
[1] = system: NF-κB reporter THP1 cells; assay: NF-kB-induced luminescence HTS in THP1-Lucia cells (384-well); format: cell-based, human; conditions: ranked at 3.3 μM; ~200,000 compounds tested
Excerpt: HTS Overview: To identify immunomodulators/adjuvants that robustly activate human immune cells, ˜200,000 small molecules were screening in a THP1 cell-based assay. The chemical libraries screened included known bioactive and commercial libraries from various sources including commercial libraries such as ChemDiv, ChemBridge, and Asinex. All libraries were owned and provided by the Institute of Chemistry and Cell Biology (ICCB)—Longwood (Harvard Medical School). The project primary screen incorporated two distinct arms: a) a luciferase-based screen which corresponds to the relative activation of the NF-κB reporter; and b) a fluorescence-based screen, corresponding to the phenotypic adherence, a distinct marker of cell activation, of the human monocytic THP-1 cell lines. Described herein are small molecules identified in the screen that induce NF-kB activity based on a luciferase-based THP-1 cell screen.
(§1) THP-1 Cell Line and Culture Conditions. The THP1-Lucia™ cell line was obtained from Invivogen (San Diego, CA). THP1-Lucia cells, which are human monocytic cells derived from the blood of a child with leukemia, contain an NF-kB-inducible Luc reporter construct. This allows NF-kB activation to be measured by quantifying the luminescence from the secreted luciferase enzyme. THP1-Lucia cells were cultured in RPMI 1640 supplemented with 10% non-heat inactivated fetal bovine serum (FBS), 10 mM HEPES, 1.0 mM sodium pyruvate, 50 ug/ml Pen-Strep, and 100 ug/mL Normocin™. Once cultured, the cells were stored in a 37° C. incubator with 5% CO2 and a humidified atmosphere. Cells were passaged every 2-3 days and not allowed to exceed a concentration of 2.0×10^6 cells/ml media.
NF-kB-induced Luminescence Assay. THP1-Lucia cells between passage 15 and 18 and suspended in culture medium were dispensed into 384-well black clear-bottom plates (Corning 3712) at 30,000 cells/30 μl/well using a Combi liquid dispenser. To allow comparison to a benchmark small molecule with known immune stimulating activity, cells at the same concentration were stimulated with 50 μM R848, a TLR7/8 agonist, in 0.3% DMSO and added to every other well of column 24, which was left empty of cells, by multichannel pipette at the same volume. Five μl of 700 nM Phorbol myristate acetate (PMA) in THP1 culture media and 2.3% DMSO, a known peripheral blood cell mitogen, was added to every other well of column 23 by multichannel pipette (final concentration in well: 100 nM in 0.3% DMSO). Five μl of THP1 culture media with 2.3% DMSO was added to the remaining wells of column 23 by multichannel pipette (final concentration 0.3% DMSO). One hundred nl aliquots of library compounds diluted in 100% DMSO were transferred from their original 384-well plates to the assay plates using a Seiko pin transfer machine. Each library plate was pinned in duplicate, yielding two assay plates with identical conditions for comparison. Plates were then incubated for 24 hours at 37 C with 5% CO2 in humid conditions. Following incubation, 10 μL of supernatant was removed from each well and transferred to a white plate (Corning 3570) using a Vprep liquid transfer machine. 10 μL of recombinant Lucia protein (Invivogen) diluted 1:2000 in THP1 culture media was added to empty well 24P. Using a Combi liquid dispenser, 50 μL/well of Quanti-Luc substrate (Invivogen) diluted 1:3 in sterile water was added to the assay plate. Immediately after adding the substrate, the luminescence was read using a PerkinElmer Envision plate reader.

[2] = system: human adult PBMCs; assay: Cytokine production by stimulated human adult PBMCs (ELISA / multiplex); format: cell-based; conditions: human adult PBMCs, 24 hours, compounds at 100 µM (FIG. 7), ELISA, median
Description: ELISAs and Multiplex-Analyte Assays. Supernatants derived from human PBMCs stimulations were assayed by ELISA for TNF and IL-6 (ThermoFisher Scientific; Waltham, MA, USA). Cytokine and chemokine expression profiles (e.g., IFNγ, IL-9, IL-10, IL-12 (p70), IL-13, IL-1β, IL-23, IL-27, IL-28A, IL-33, IL-6, MIP-3α/CCL20, and TNF) in cell culture supernatants were measured using a customized Milliplex® Human Th17 Magnetic Bead Panel according to the manufacturer's instructions (Millipore, Chicago, IL, USA). Assays were read and analyzed on the Luminex® 100/200TM System and xPOTENT® software (Luminex, Austin, TX). A minimum threshold was set at the minimum detectable concentration for each individual assay, defined as three standard deviations above the mean background.
PBMCs were isolated from blood using a Ficoll density gradient. PBMCs either used fresh or were stored at 5×10^7 cells per vial in 1 mL RPMI containing 20% autologous plasma and 10% DMSO at −80° C. until use. […] PBMCs isolated from human adult donors or THP1-NF-κB cells were resuspended at a concentration of 10^5 cells/200 μl of RPMI supplemented with 10% of platelet-poor plasma or THP1 culture medium, respectively. […] After 24 hours of incubation (37° C., 5% CO2), plates were spun down (500×g, room temperature, 5 minutes) and supernatants were harvested for further analysis.

[3] = system: THP1-NF-κB cells; assay: THP1-NF-κB cell stimulation for 24 hours, secreted luciferase luminescence; format: cell-based, human; conditions: NF-κB-dependent luminescence, 24 hours; for THP1 cells (relative luminescence units, N = 4) Comp at 25 uM: compound at 25 uM; for THP1 cells (relative luminescence units, N = 4) Comp at 100 uM: compound at 100 uM
Description: as §1
PBMCs were isolated from blood using a Ficoll density gradient. PBMCs either used fresh or were stored at 5×10^7 cells per vial in 1 mL RPMI containing 20% autologous plasma and 10% DMSO at −80° C. until use. Stimulation plates were prepared by transferring 0.66 μl of DMSO-dissolved compounds (30 or 7.5 mM) to each well of a round bottom 96-well plate. PBMCs isolated from human adult donors or THP1-NF-κB cells were resuspended at a concentration of 10^5 cells/200 μl of RPMI supplemented with 10% of platelet-poor plasma or THP1 culture medium, respectively. 200 μl of the cell suspension were transferred to each well resulting in a final compound concentration of 100 or 25 μM. After 24 hours of incubation (37° C., 5% CO2), plates were spun down (500×g, room temperature, 5 minutes) and supernatants were harvested for further analysis.

Compound	Efficacy in activating NF-κB in THP1 cells (screening hits) [1]	Adult PBMCs (median ng/ml) IL-6 (N = 7) [2] [ng/mL]	Adult PBMCs (median ng/ml) TNFa (N = 13) [2] [ng/mL]	THP1 cells (relative luminescence units, N = 4) Comp at 25 uM [3]	THP1 cells (relative luminescence units, N = 4) Comp at 100 uM [3]
COC(=O)c1c(NC(=O)CN2CCN(C(=O)c3ccco3)CC2)sc2c1CCC2 [Compound 003]	most effective				
CCOC(=O)c1c(NC(=O)CN2CCC3(CC2)OCCO3)sc(C)c1C [Compound 005]	most effective				
CNC(=O)c1c(NC(=O)c2ccc(Cl)cc2)sc2c1CCC2 [Compound 80.5]		0.008	0.008	436.5 relative luminescence units	777 relative luminescence units
CCN(CC)S(=O)(=O)c1ccc(C(=O)Nc2sc3c(c2C(=O)NC)CCC3)cc1 [Compound 80.6]				2505 relative luminescence units	2816 relative luminescence units
CNC(=O)c1c(NC(=O)c2ccc(OC)cc2)sc2c1CCC2 [Compound 80.8]		0.008	0.008	258.5 relative luminescence units	2552 relative luminescence units
CNC(=O)c1c(NC(=O)c2ccc(C#N)cc2)sc2c1CCC2 [Compound 80.11]		0.0225	0.008	1108 relative luminescence units	2420 relative luminescence units
CNC(=O)c1c(NC(=O)c2ccc(S(=O)(=O)N(C)C)cc2)sc2c1CCCCC2 [Compound 80.13]		0.008	0.008	348 relative luminescence units	11361 relative luminescence units
CNC(=O)c1c(NC(=O)c2ccc(S(=O)(=O)N3CCCCC3)cc2)sc(C)c1C [Compound 80.14]		0.008	0.008	517 relative luminescence units	1475 relative luminescence units
CNc1ccc([N+](=O)[O-])cc1-n1cnc(-c2ccc([N+](=O)[O-])cc2)c1 [TM-A, reference compound]		2.154	0.092	8777 relative luminescence units	13092 relative luminescence units
COC(=O)c1c(NC(=O)Nc2ccccc2)sc2c1CCCC2 [TM-B, reference compound]		0.057	0.008	1204 relative luminescence units	681 relative luminescence units
CCOC(=O)c1c(NC(=S)Nc2ccc(OC)cc2)sc2c1CCCC2 [TM-C, reference compound]		0.5145	0.01575	3440 relative luminescence units	4031 relative luminescence units
Cc1ccc(N(CC(=O)NCc2ccc(Cl)cc2)S(C)(=O)=O)cc1 [TM-E, reference compound]		0.008	0.008	320 relative luminescence units	428.5 relative luminescence units
COc1ccc(CNC(=O)CN(c2ccc(Br)cc2)S(=O)(=O)c2ccccc2)cc1 [TM-F, reference compound]		0.008	0.008	348.5 relative luminescence units	2012 relative luminescence units
